Data from US6943183B2 (Pfizer Inc, priority 2000, dated 2005).

Tests used:
[1] = biological target: T1, SF9 affinity purified rat FPT (Rattus norvegicus, UniProt Q02293+Q04631); assay: PFT (FPT) inhibitory activity assay, radiolabeled farnesyl pyrophosphate and biotinyl peptide, streptavidin beads; format: biochemical; settings: HEPES buffer pH 7.4, 30° C., 30 minutes; read-out: FTase IC50
T1 construct: made in house; host or cells: Sf9 insect cells
Method in brief: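 Rat FPT expressed in SF9 cells was incubated 30 minutes at 30° C. with compound (in 10% DMSO), radiolabeled farnesyl pyrophosphate and biotinylated peptide. Buffer: HEPES pH 7.4, ZnCl2 20 μM, MgCl2 and DTT 5 mM each, 0.1% PEG 8000, 5 mM potassium phosphate (also run without phosphate). Product captured on streptavidin beads in magnesium acetate/H3PO4 stop buffer.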

[2] = system: EJ-1 human bladder carcinoma; settings: 100 mg/kg, xenograft in nude mice; cited from earlier work
[3] = system: HT1080 human fibrosarcoma; settings: 100 mg/kg, xenograft in nude mice; cited from earlier work
[4] = system: human colon carcinoma xenografts; settings: 100 mg/kg, xenograft in nude mice; cited from earlier work
[5] = system: human lung carcinoma with K-ras mutation and p53 deletion; settings: nude mice; cited from earlier work
[6] = system: mammary and salivary carcinomas; settings: daily administration, ras transgenic mice; cited from earlier work

Row | SMILES | IC50 [1] [nM] | other results
1 | Nc1nccn1CC(Oc1ccc2c(c1CCc1ccccc1)CCCC2=O)c1ccccc1 (stereo not drawn) [Compound 63r, 6-[2-(2-Amino-imidazol-1-yl)-1-phenyl-ethoxy]-5-phenethyl-3,4-dihydro-2H-naphthalen-1-one] | 35 | melting point: 185 to 188 °C
2 | CC(O)CNC(=O)c1ccc(SCc2c(O[C@H](Cn3ccnc3)c3ccccc3)ccc3c2CCCC3=O)cc1 (stereo partly drawn) [Compound 256, N-(2-Hydroxypropyl)-4-{[(2-{[(1S)-2-(1H-imidazol-1-yl)-1-phenylethyl]oxy}-5-oxo-5,6,7,8-tetrahydro-1-naphthalenyl)methyl]sulfanyl}benzamide] | 0.2 | –
3 | CC(O)CNC(=O)c1ccccc1SCc1c(O[C@H](Cn2ccnc2)c2ccccc2)ccc2c1CCCC2=O (stereo partly drawn) [Compound 257, N-(2-Hydroxypropyl)-2-{[(2-{[(1S)-2-(1H-imidazol-1-yl)-1-phenylethyl]oxy}-5-oxo-5,6,7,8-tetrahydro-1-naphthalenyl)methyl]sulfanyl}benzamide] | 0.2 | –
4 | CC(O)CNC(=O)c1cccc(SCc2c(O[C@H](Cn3ccnc3)c3ccccc3)ccc3c2CCCC3=O)c1 (stereo partly drawn) [Compound 258, N-(2-Hydroxypropyl)-3-{[(2-{[(1S)-2-(1H-imidazol-1-yl)-1-phenylethyl]oxy}-5-oxo-5,6,7,8-tetrahydro-1-naphthalenyl)methyl]sulfanyl}benzamide] | 0.2 | –
5 | COCCNC(=O)c1cccc(SCc2c(O[C@H](Cn3ccnc3)c3ccccc3)ccc3c2CCCC3=O)c1 [Compound 259, 3-{[(2-{[(1S)-2-(1H-Imidazol-1-yl)-1-phenylethyl]oxy}-5-oxo-5,6,7,8-tetrahydro-1-naphthalenyl)methyl]sulfanyl}-N-(2-methoxyethyl)benzamide] | 0.2 | –
6 | COCCNC(=O)c1ccccc1SCc1c(O[C@H](Cn2ccnc2)c2ccccc2)ccc2c1CCCC2=O [Compound 260, 2-{[(2-{[(1S)-2-(1H-Imidazol-1-yl)-1-phenylethyl]oxy}-5-oxo-5,6,7,8-tetrahydro-1-naphthalenyl)methyl]sulfanyl}-N-(2-methoxyethyl)benzamide] | 0.2 | –
7 | COCCNC(=O)c1ccc(SCc2c(O[C@H](Cn3ccnc3)c3ccccc3)ccc3c2CCCC3=O)cc1 [Compound 261] | 0.2 | –
8 | COCCNC(=O)c1cccc(S(=O)(=O)Cc2c(O[C@H](Cn3ccnc3)c3ccccc3)ccc3c2CCCC3=O)c1 [Compound 263, 3-{[(2-{[(1S)-2-(1H-Inimidazol-1-yl)-1-phenylethyl]oxy}-5-oxo-5,6,7,8-tetrahydro-1-naphthalenyl)methyl]sulfonyl}-N-(2-methoxyethyl)benzamide] | 0.2 | –
9 | COCCNC(=O)c1ccccc1S(=O)(=O)Cc1c(O[C@H](Cn2ccnc2)c2ccccc2)ccc2c1CCCC2=O [Compound 264, 2-{[(2-{[(1S)-2-(1H-Imidazol-1-yl)-1-phenylethyl]oxy}-5-oxo-5,6,7,8-tetrahydro-1-naphthalenyl)-methyl]sulfonyl}-N-(2-methoxyethyl)benzamide] | 0.2 | –
10 | COC(=O)[C@H](CCSC)NC(=O)[C@H](/C=C\[C@@H](/C=C/[C@@H](N)CS)C(C)C)Cc1ccccc1 [Compound B1086] | – | inhibition of tumor growth [2]: inhibit tumor growth; inhibition of tumor growth [3]: inhibit tumor growth; inhibition of tumor growth [4]: inhibit tumor growth
11 | CSCC[C@H](NC(=O)c1ccc(NC[C@@H](N)CS)cc1-c1ccccc1)C(=O)O [FTI276] | – | block of tumor growth [5]: selectively block tumor growth
12 | CC[C@H](C)[C@@H](CO[C@@H](Cc1ccccc1)C(=O)N[C@@H](CCS(C)(=O)=O)C(=O)OC(C)C)NC[C@@H](N)CS [L-744,832] | – | tumor regression [6]: tumor regression
